In the NIST ThermoML archive (doi:10.1021/je800664z):

Test: xn = mol fraction of the nth substance listed
Conditions: for surface tension liquid-gas: Capillary rise; for mass density / viscosity: 101 kPa, Liquid

C1COCO1 [1,3-dioxolane] + CC(C)CC(C)(C)C
Conditions | mass density, 288.15 K [kg/m3] | mass density, 298.15 K [kg/m3] | mass density, 308.15 K [kg/m3] | surface tension liquid-gas, 288.15 K [mN/m] | surface tension liquid-gas, 298.15 K [mN/m] | surface tension liquid-gas, 308.15 K [mN/m] | viscosity, 288.15 K [mPa·s] | viscosity, 298.15 K [mPa·s] | viscosity, 308.15 K [mPa·s]
x1 = 0.0501 | 704.03 | 695.41 | 686.72 | 19.37 | 18.57 | 17.58 | 0.529 | 0.48 | 0.431
x1 = 0.1 | 712.38 | 703.47 | 694.59 | 19.55 | 18.75 | 17.78 | 0.528 | 0.478 | 0.432
x1 = 0.15 | 721.22 | 712.11 | 703.08 | 19.7 | 18.92 | 17.93 | 0.527 | 0.478 | 0.432
x1 = 0.2 | 730.61 | 721.42 | 712.28 | 19.83 | 19.07 | 18.08 | 0.527 | 0.479 | 0.433
x1 = 0.25 | 740.66 | 731.37 | 722.16 | 19.97 | 19.2 | 18.23 | 0.528 | 0.479 | 0.433
x1 = 0.3 | 751.51 | 742.15 | 732.81 | 20.08 | 19.33 | 18.37 | 0.532 | 0.48 | 0.433
x1 = 0.35 | 763.25 | 753.76 | 744.31 | 20.22 | 19.47 | 18.53 | 0.536 | 0.483 | 0.434
x1 = 0.4 | 775.92 | 766.31 | 756.72 | 20.38 | 19.63 | 18.72 | 0.541 | 0.487 | 0.438
x1 = 0.45 | 789.66 | 779.89 | 770.11 | 20.57 | 19.82 | 18.93 | 0.547 | 0.492 | 0.442
x1 = 0.5 | 804.59 | 794.63 | 784.66 | 20.78 | 20.03 | 19.15 | 0.554 | 0.498 | 0.447
x1 = 0.55 | 820.88 | 810.69 | 800.5 | 21.02 | 20.3 | 19.42 | 0.561 | 0.504 | 0.453
x1 = 0.6 | 838.7 | 828.25 | 817.8 | 21.32 | 20.6 | 19.72 | 0.568 | 0.511 | 0.46
x1 = 0.65 | 858.32 | 847.56 | 836.8 | 21.63 | 20.93 | 20.05 | 0.576 | 0.519 | 0.467
x1 = 0.7 | 879.84 | 868.87 | 857.72 | 22 | 21.32 | 20.47 | 0.585 | 0.527 | 0.475
x1 = 0.75 | 903.63 | 892.42 | 880.96 | 22.43 | 21.8 | 20.95 | 0.595 | 0.536 | 0.484
x1 = 0.8 | 929.95 | 918.53 | 906.76 | 23 | 22.4 | 21.57 | 0.605 | 0.546 | 0.494
x1 = 0.85 | 959.26 | 947.66 | 935.7 | 23.85 | 23.32 | 22.6 | 0.617 | 0.557 | 0.505
x1 = 0.9 | 992.11 | 980.35 | 968.03 | 25.35 | 24.9 | 24.22 | 0.632 | 0.571 | 0.515
x1 = 0.95 | 1029.19 | 1017.39 | 1004.78 | 28.33 | 27.6 | 26.78 | 0.651 | 0.584 | 0.526
x1 = 1 | 1071.24 | 1059.29 | 1046.85 | 34.37 | 32.55 | 30.67 | 0.667 | 0.596 | 0.535

C1COCO1 [1,3-dioxolane] + CC(C)O
Conditions | mass density, 288.15 K [kg/m3] | mass density, 298.15 K [kg/m3] | mass density, 308.15 K [kg/m3] | surface tension liquid-gas, 288.15 K [mN/m] | surface tension liquid-gas, 298.15 K [mN/m] | surface tension liquid-gas, 308.15 K [mN/m] | viscosity, 288.15 K [mPa·s] | viscosity, 298.15 K [mPa·s] | viscosity, 308.15 K [mPa·s]
x1 = 0.05 | 802.01 | 793.33 | 784.33 | 21.98 | 21.22 | 20.48 | 2.285 | 1.69 | 1.299
x1 = 0.1 | 814.65 | 805.66 | 796.38 | 22.23 | 21.52 | 20.8 | 1.846 | 1.429 | 1.126
x1 = 0.15 | 827.45 | 818.26 | 808.69 | 22.53 | 21.8 | 21.1 | 1.564 | 1.237 | 0.999
x1 = 0.2 | 840.43 | 831.03 | 821.18 | 22.85 | 22.1 | 21.42 | 1.371 | 1.099 | 0.895
x1 = 0.25 | 853.56 | 843.97 | 833.89 | 23.2 | 22.4 | 21.7 | 1.221 | 0.992 | 0.817
x1 = 0.3001 | 866.86 | 857.09 | 846.77 | 23.57 | 22.75 | 22 | 1.105 | 0.908 | 0.756
x1 = 0.35 | 880.33 | 870.34 | 859.8 | 23.95 | 23.12 | 22.33 | 1.012 | 0.84 | 0.706
x1 = 0.4 | 893.96 | 883.74 | 873.01 | 24.38 | 23.5 | 22.7 | 0.934 | 0.784 | 0.667
x1 = 0.45 | 907.75 | 897.31 | 886.41 | 24.83 | 23.93 | 23.12 | 0.874 | 0.74 | 0.637
x1 = 0.5 | 921.7 | 911.08 | 899.98 | 25.32 | 24.42 | 23.55 | 0.823 | 0.72 | 0.609
x1 = 0.55 | 935.82 | 925.02 | 913.73 | 25.85 | 24.92 | 24.03 | 0.779 | 0.671 | 0.586
x1 = 0.6 | 950.11 | 939.14 | 927.66 | 26.43 | 25.48 | 24.55 | 0.745 | 0.645 | 0.568
x1 = 0.65 | 964.58 | 953.43 | 941.79 | 27.05 | 26.1 | 25.15 | 0.719 | 0.626 | 0.555
x1 = 0.7001 | 979.2 | 967.87 | 956.09 | 27.75 | 26.77 | 25.8 | 0.697 | 0.611 | 0.542
x1 = 0.75 | 994.01 | 982.51 | 970.57 | 28.57 | 27.53 | 26.5 | 0.682 | 0.599 | 0.531
x1 = 0.8 | 1009 | 997.36 | 985.26 | 29.47 | 28.38 | 27.28 | 0.671 | 0.592 | 0.525
x1 = 0.85 | 1024.2 | 1012.38 | 1000.13 | 30.5 | 29.33 | 28.1 | 0.657 | 0.587 | 0.52
x1 = 0.9 | 1039.61 | 1027.67 | 1015.21 | 31.63 | 30.37 | 28.95 | 0.636 | 0.585 | 0.519
x1 = 0.95 | 1055.25 | 1043.29 | 1030.71 | 32.95 | 31.43 | 29.82 | 0.635 | 0.587 | 0.523
x1 = 1 | 1071.24 | 1059.29 | 1046.85 | 34.37 | 32.55 | 30.67 | 0.667 | 0.596 | 0.535
